{"source": "patent US7592326B2", "about": "“Method for stimulating the immune, inflammatory or neuroprotective response” (priority 2004, dated 2009)", "key": {"S. pneumoniae strain D39": {"tested_on": "S. pneumoniae strain D39", "assay": "Mouse pneumococcal pneumonia (proposed)", "assay_type": "in vivo", "conditions": "200 nmol 24- and 48 hours prior; 1×10^5 CFU D39"}, "S. aureus Newbould 305": {"tested_on": "S. aureus Newbould 305", "assay": "Mouse model of S. aureus-induced mastitis, prophylactic pre-treatment", "assay_type": "in vivo", "conditions": "for reduction of the mean bacterial CFU in tissues compared to untreated control: lactating CD-1 mice, 10 h infection", "protocol": "The well-characterized mouse model of S. aureus-induced mastitis (see Brouillette et al., 2005 for review) was used to evaluate the capacity of c-di-GMP to act as a prophylactic agent. S. aureus is a Gram-positive bacterial pathogen. The protocol used here is similar to that described in a previous study (Brouillette et al., 2005), except that the c-di-GMP molecule was administered before infection of mammary glands, instead of after, in order to evaluate its prophylactic capacity. […] For inoculation, 100 cfu of S. aureus Newbould 305 (ATCC 29740) were injected in each gland and the colonization allowed for 10 h. Raw bacterial cfu counts obtained after plating serial logarithmic dilutions of mammary gland homogenates were transformed in base-10 logarithm values. The experiment was repeated and data combined for a total of 9 mice (18 glands) per group. Since values passed the normality test, bacterial counts were analyzed for statistical significance using the One-way analysis of variance test combined with the Tukey post test (GraphPad Instat, version 3.06). The institutional ethics committee on animal experimentation of the Faculté des sciences of Université de Sherbrooke approved these experiments and were carried out following the guidelines of the Canadian Council on Animal Care."}, "DCs": {"tested_on": "DCs", "assay": "Mannose receptor-mediated endocytosis (FITC-dextran uptake)", "assay_type": "cell-based, human", "conditions": "DCs treated 24 h; FIG. 2", "protocol": "Mannose receptor (MR)-mediated endocytosis was measured as the cellular uptake of FITC-dextran (DX) and quantified by flow cytometry. A total of 2×10^5 cells per sample were incubated in media containing FITC-DX (1 mg/ml) (Mv 40,000). After 15 min of incubation at 37° C. or 4° C. (as negative control), cells were washed four times with cold PBS containing 1% FCS and 0.01% NaN3 and fixed in 1% formaldehyde. The background (cells pulsed at 4° C.) was always subtracted."}, "[1]": {"tested_on": "Influenza virus B/Yamanashi/166/98", "assay": "Influenza vaccination model in mice, c-diGMP as adjuvant (proposed)", "assay_type": "in vivo", "conditions": "two vaccinations 3 weeks apart"}, "[2]": {"tested_on": "TLR1/2, TLR3, TLR4/MD2, TLR5, TLR2/6, TLR7, TLR8, and TLR9", "assay": "HEK cells stably transfected with TLRs, IL-8 transcripts by QPCR", "assay_type": "cell-based, human", "conditions": "200 uM, 3 hours", "protocol": "To test this hypothesis, human embryonic kidney (HEK) cells, which are normally unresponsive to TLR ligand stimulation, were stably transfected with TLR1/2, TLR3, TLR4/MD2, TLR5, TLR2/6, TLR7, TLR8, and TLR9. HEK 293 cells were cultured in Dulbecco's modified Eagle's medium supplemented with 10% fetal bovine serum. Cells were plated in 24-well tissue culture plates (1×10^5 cells/well) and maintained in the above medium for 24 h. The following day, cells were either left untreated or incubated with the indicated amount of TLR ligand. After the 3 hour treatment period, cells were harvested for total RNA using the Qiagen RNeasy kit per the manufacturer's protocol. The total RNA was converted to cDNA and QPCR was performed to determine the number of copies of IL-8."}, "Human immature DCs": {"tested_on": "Human immature DCs", "assay": "Maturation of human monocyte-derived DCs (surface markers, flow cytometry)", "assay_type": "cell-based", "conditions": "24 hours", "protocol": "Buffy coats were obtained from healthy human volunteers and fractionated over Histopaque-1077. The peripheral blood mononuclear cells (PBMC) layer was recovered and erythrocyte-depleted by incubation in red blood cell lysis buffer for 5 minutes at room temperature. PBMCs were cultured in complete medium (RPMI 1640, 1% L-glutamine, 1% penicillin/streptomycin, and 10% low endotoxin FCS) for 2 hours in T75 flasks (Corning). Following incubation, nonadherent cells were removed by three washes with 1× PBS (Invitrogen, Carlsbad, Calif.). The remaining adherent cells were then cultured in complete medium supplemented with GM-CSF and IL-4 (50 ng/mL each). Human and murine IL-4 and GM-CSF were purchased from Peprotech (Rocky Hill, N.J.). On day 2 and day 4, the DC cultures received an additional dose of GM-CSF and IL-4 (50 ng/mL each). On day 5, non-adherent DC were harvested by gentle pipetting, counted, and plated in fresh medium containing GM-CSF and IL-4 (50 ng/mL each). […]\nSurface expression of various markers was assessed using CellQuest analysis software on a FACScalibur (Becton-Dickinson) flow cytometer. Surface expression was determined using the following FITC- and PE-conjugated antibodies: CD86-FITC (Research Diagnostics), CCR7-PE (R&D Systems), CD80-FITC, CD83-FITC, HLA-DR-FITC (BD Pharmingen). The isotype control antibodies were used accordingly in all experiments and were purchased from Pharmingen. Human DC were incubated in 1% human AB serum/PBS and were incubated with rat anti-CD16/CD32 (BD Phamingen) to block non-specific binding. Total RNA was extracted using the RNeasy kit according to the manufacturer's protocol (Qiagen). […] Emitted fluorescence for each reaction was measured during the annealing/extension phase, and amplification plots were analyzed using the MX4000 software version 3.0 (Stratagene). Quantity values (i.e., copies) for gene expression were generated by comparison of the fluorescence generated by each sample with standard curves of known quantities. Next, the calculated number of copies was divided by the number of copies of the housekeeping gene GAPDH."}, "[3]": {"conditions": "200 nmol intramammary 12 h and 6 h prior to challenge, P<0.001"}}, "data": [{"compound": "Nc1nc(=O)c2ncn([C@@H]3OC4COP(=O)(O)O[C@H]5[C@@H](O)[C@H](n6cnc7c(=O)nc(N)[nH]c76)O[C@@H]5COP(=O)(O)OC4C3O)c2[nH]1", "note": "(some centres unmarked) [c-di-GMP, Bis(3′→5′)-cyclic diguanylic acid]", "values": [{"measurement": "bacterial counts in the lungs", "setting": "S. pneumoniae strain D39", "value": "decreased bacterial counts"}, {"measurement": "reduction of the mean bacterial CFU in tissues compared to untreated control", "setting": "S. aureus Newbould 305; 50 nmol intramammary 12 h and 6 h prior to challenge, P<0.05", "value": 1.5, "unit": "log"}, {"measurement": "reduction in CFUs in tissues", "setting": "S. aureus Newbould 305; [3]", "value": "10,000 fold"}, {"measurement": "reduction of the mean bacterial CFU in tissues compared to untreated control", "setting": "S. aureus Newbould 305; [3]", "value": 3.8, "unit": "log"}, {"measurement": "uptake of FITC-DX (MR-mediated endocytosis)", "setting": "DCs", "value": "did not induce any major effect"}, {"measurement": "survival after challenge", "setting": "[1]", "value": "greater survival"}, {"measurement": "stimulation of LPS-sensitive MD2/TLR4-HEK cell line", "setting": "[2]", "value": "failed to stimulate"}, {"measurement": "activation of TLR expressing HEK cell lines (IL-8 transcripts)", "setting": "[2]; FIG. 14", "value": "none of the TLR expressing cell lines were activated"}, {"measurement": "CD83 expression, net MFI", "setting": "Human immature DCs; 200 uM c-di-GMP or LPS (positive control), untreated net MFI=4.89, FIG. 10A", "value": 63.34}, {"measurement": "expression of maturation markers CD80, CD86, CCR7, and MHC class II", "setting": "Human immature DCs; 200 uM, FIG. 10C", "value": "increase"}, {"measurement": "concentration at which significant increases in surface CD83 begin", "setting": "Human immature DCs; 5 to 500 uM, FIG. 10B", "value": 32, "unit": "µM"}]}]}
